Results published in patent US12180226B2, “Spirotricycle RIPK1 inhibitors and methods of uses thereof” (Merck Sharp & Dohme LLC, priority 2021, dated 2024).
pEC50: −log10 of the molar value. Counter-ions that a name gives are not always drawn.

What follows are compounds tested against RIPK1 (recombinant GST-RIPK1 kinase domain, residues 1-327) (Homo sapiens (Human), UniProt Q13546) (assay: RIPK1-ADP-Glo Enzymatic Assay). Settings: ADP-Glo; 25 nM GST-RIPK1, 300 μM ATP; assay lower limit ~25 nM; read-out: RIPK1 V0 Ec50.
Sequence of RIPK1 (recombinant GST-RIPK1 kinase domain, residues 1-327) (Q13546 1-327): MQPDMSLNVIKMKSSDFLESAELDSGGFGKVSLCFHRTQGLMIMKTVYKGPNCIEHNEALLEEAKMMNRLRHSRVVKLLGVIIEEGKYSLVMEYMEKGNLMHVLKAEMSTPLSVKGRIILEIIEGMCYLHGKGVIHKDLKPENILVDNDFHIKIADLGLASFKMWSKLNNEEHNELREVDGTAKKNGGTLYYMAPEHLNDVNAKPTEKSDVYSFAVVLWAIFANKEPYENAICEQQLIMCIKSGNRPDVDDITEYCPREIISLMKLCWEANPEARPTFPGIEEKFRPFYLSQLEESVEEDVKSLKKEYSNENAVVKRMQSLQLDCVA
Type: biochemical
In short: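 GST-tagged kinase domain (residues 1-327, Sf21-expressed), 25 nM, pre-incubated 30 min with compound at ambient temperature, then reacted 150 min with 300 μM ATP and 3 μM dephosphorylated MBP in HEPES pH 7.3 buffer. ADP measured by ADP-Glo luminescence; EC50 from ten-point titration (top 100000 nM), four-parameter fit.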

| Compound | pEC50 |
| --- | --- |
| COCOc1cc(-c2ccc(N3CCC4(CC3)O[C@@H]3CC[C@@H](c5ccccc5)N3C4=O)nc2)on1 [Example 4.164, (5′S,7a′R)-1-{5-[3-(methoxymethoxy)-1,2-oxazol-5-yl]pyridin-2-yl}-5′-phenyltetrahydro-3′H-spiro[piperidine-4,2′-pyrrolo[2,1-b] [1,3]oxazol]-3′-one] | 7.54 |
| O=C1N2[C@@H](CC[C@H]2c2cc(F)cc(F)c2)OC12CCN(c1ccnc3c(F)cnn13)CC2 [Example 3.1, (5′S,7a′R)-5′-(3,5-difluorophenyl)-1-(3-fluoropyrazolo[1,5-a]pyrimidin-7-yl)tetrahydro-3′H-spiro[piperidine-4,2′-pyrrolo[2,1-b]oxazol]-3′-one] | > 7.60 |
| COc1ccnc(N2CCC3(CC2)O[C@@H]2CC[C@@H](c4cc(F)cc(F)c4)N2C3=O)n1 [Example 4.10, (5′S,7a′R)-5′-(3,5-difluorophenyl)-1-(4-methoxypyrimidin-2-yl)tetrahydro-3′H-spiro[piperidine-4,2′-pyrrolo[2,1-b] [1,3]oxazol]-3′-one] | 7.45 |
| O=C(c1ncn2ccccc12)N1CCC2(CC1)O[C@@H]1CC[C@@H](c3cc(F)cc(F)c3)N1C2=O [Example 5.74, (5′S,7a′R)-5′-(3,5-difluoro-phenyl)-1-(imidazo[1,5-a]-pyridine-1-carbonyl)tetra-hydro-3′H-spiro[piperi-dine-4,2′-pyrrolo[2,1-b]oxazol]-3′-one] | 7.37 |
| CC(F)c1cc(N2CCC3(CC2)O[C@@H]2CC[C@@H](c4ccccc4)N2C3=O)ncn1 (stereo partly drawn) [Example 4.215, (5′S,7a′R)-1-[6-(1-fluoroethyl)pyrimidin-4-yl]-5′-phenyltetrahydro-3′H-spiro[piperidine-4,2′-pyrrolo[2,1-b] [1,3]oxazol]-3′-one] | 6.26 |
| O=C1N2[C@@H](CO[C@H]2c2cc(F)cc(F)c2)CC12CCN(c1ccnc3c(F)cnn13)CC2 (stereo in doubt) [Example 4.148, 3′-(3,5-difluorophenyl)-1-(3-fluoropyrazolo[1,5-a]pyrimidin-7-yl)dihydro-1′H,3′H,5′H-spiro[piperidine-4,6′-pyrrolo[1,2-c] [1,3]oxazol]-5′-one] | > 7.60 |
| O=C1N2[C@@H](CC[C@H]2c2ccccc2)OC12CN(c1ccnc3c(F)cnn13)C2 [Example 4.96, (5′S,7a′R)-1-(3-fluoropyrazolo[1,5-a]pyrimidin-7-yl)-5′-phenyltetrahydro-3′H-spiro[azetidine-3,2′-pyrrolo[2,1-b]oxazol]-3′-one, TFA salt] | > 7.60 |
| N#Cc1cnc(N2CCC3(CC2)O[C@@H]2CC[C@@H](c4cc(F)cc(F)c4)N2C3=O)s1 [Example 4.101, 2-((5′S,7a′R)-5′-(3,5-difluorophenyl)-3′-oxotetrahydro-3′H-spiro[piperidine-4,2′-pyrrolo[2,1-b]oxazol]-1-yl)thiazole-5-carbonitrile] | 7.39 |
| CC1CN(c2cc(C#N)ncn2)CCC12O[C@@H]1CC[C@@H](c3ccccc3)N1C2=O (stereo partly drawn) [Example 4.236, 6-[(4R,5′S,7a′R)-3-methyl-3′-oxo-5′-phenyltetrahydro-1H,3′H-spiro[piperidine-4,2′-pyrrolo[2,1-b] [1,3]oxazol]-1-yl]pyrimidine-4-carbonitrile] | 7.30 |
| O=C(c1cc(F)ccc1F)N1CCC2(CC1)O[C@@H]1CC[C@@H](c3cccc(F)c3)N1C2=O [Example 1.6, (5′S,7a′R)-1-(2,5-difluorobenzene-1-carbonyl)-5′-(3-fluorophenyl)tetrahydro-3′H-spiro[piperidine-4,2′-pyrrolo[2,1-b] [1,3]oxazol]-3′-one] | > 7.60 |
| Cc1nc(N2CCC3(CC2)O[C@@H]2CC[C@@H](c4ccccc4F)N2C3=O)ccc1C#N [Example 4.105, 6-((5′S,7a′R)-5′-(2-fluorophenyl)-3′-oxotetrahydro-3′H-spiro[piperidine-4,2′-pyrrolo[2,1-b]oxazol]-1-yl)-2-methylnicotinonitrile] | > 7.60 |
| N#Cc1ccc(N2CCC3(CC2)O[C@@H]2CC[C@@H](c4ccccc4F)N2C3=O)n2nccc12 [Example 4.156, 7-[(5′S,7a′R)-5′-(2-fluorophenyl)-3′-oxotetrahydro-1H,3′H-spiro[piperidine-4,2′-pyrrolo[2,1-b] [1,3]oxazol]-1-yl]pyrazolo[1,5-a] pyridine-4-carbonitrile] | > 7.60 |
| O=C(c1cc(F)ccc1F)N1CCC2(CC1)O[C@@H]1CC[C@@H](c3ccccc3F)N1C2=O [Example 1.12, (5′S,7a′R)-1-(2,5-difluorobenzoyl)-5′-(2-fluorophenyl)tetrahydro-3′H-spiro[piperidine-4,2′-pyrrolo[2,1-b]oxazol]-3′-one] | > 7.60 |
| O=C(c1ccc(O)cc1F)N1CCC2(CC1)O[C@@H]1CC[C@@H](c3cc(F)cc(F)c3)N1C2=O [Example 5.55, (5′S,7a′R)-5′-(3,5-difluoro-phenyl)-1-(2-fluoro-4-hydroxybenzoyl)tetrahydro-3′H-spiro[piperidine-4,2′-pyrrolo[2,1-b]oxazol]-3'-one] | 7.58 |
| CSc1cc(N2CCC3(CC2)O[C@@H]2CC[C@@H](c4ccccc4)N2C3=O)ncn1 [Example 4.27, (5′S,7a′R)-1-[6-(methylsulfanyl)pyrimidin-4-yl]-5′-phenyltetrahydro-3′H-spiro[piperidine-4,2′-pyrrolo[2,1-b] [1,3]oxazol]-3′-one] | 7.74 |
| CCOc1cnc(N2CCC3(CC2)O[C@@H]2CC[C@@H](c4cc(F)cc(F)c4)N2C3=O)nc1 [Example 4.57, (5′S,7a′R)-5′-(3,5-difluorophenyl)-1-(5-ethoxypyrimidin-2-yl)tetrahydro-3′H-spiro[piperidine-4,2′-pyrrolo[2,1-b] [1,3]oxazol]-3′-one] | 6.61 |

Further lines, results first:

| pEC50 | Compound |
| --- | --- |
| 6.25 | O=C(c1ccccc1)N1CCC2(CC1)O[C@@H]1CC[C@@H](c3cnsc3)N1C2=O [Example 17.7, (5′S,7a′R)-1-benzoyl-5′-(isothiazol-4-yl)tetrahydro-3′H-spiro[piperidine-4,2′-pyrrolo[2,1-b]oxazol]-3′-one] |
| 7.14 | Cc1cc(C)cc(C(=O)N2CCC3(CC2)O[C@@H]2CC[C@@H](c4cccc(F)c4)N2C3=O)c1 [Example 6.132, (5′S,7a′R)-1-(3,5-dimethylbenzene-1-carbonyl)-5′-(3-fluoro-phenyl)tetrahydro-3′H-spiro[piperidine-4,2′-pyrrolo[2,1-b][1,3]oxazol]-3′-one] |
| 6.87 | Cc1ccnc(C(=O)N2CCC3(CC2)O[C@@H]2CC[C@@H](c4cc(F)cc(F)c4)N2C3=O)n1 [Example 6.88, (5′S,7a′R)-5′-(3,5-difluorophenyl)-1-(4-methylpyrimidine-2-carbonyl)tetrahydro-3′H-spiro[piperidine-4,2′-pyrrolo[2,1-b] [1,3]oxazol]-3′-one] |
| > 7.60 | COc1ccc(N2CCC3(CC2)O[C@@H]2CC[C@@H](c4ccccc4)N2C3=O)nc1OC [Example 11.31, (5′S,7a′R)-1-(5,6-dimethoxypyridin-2-yl)-5′-phenyltetrahydro-3′H-spiro[piperidine-4,2′-pyrrolo[2,1-b][1,3]oxazol]-3′-one] |
| 6.38 | O=C1N2[C@@H](CC[C@H]2c2ccccc2F)OC12CN(S(=O)(=O)c1cccc(F)c1)C2 [Example 8.6, (5′S,7a′R)-5′-(2-fluorophenyl)-1-((3-fluorophenyl)sulfonyl) tetrahydro-3′H-spiro[azetidine-3,2′-pyrrolo[2,1-b]oxazol]-3′-one] |
| 7.16 | CC(C)NC(=O)c1nc(N2CCC3(CC2)O[C@@H]2CC[C@@H](c4cc(F)cc(F)c4)N2C3=O)ncc1F [Example 7.14, 2-[(5′S,7a′R)-5′-(3,5-difluorophenyl)-3′-oxotetrahydro-1H,3′H-spiro[piperidine-4,2′-pyrrolo[2,1-b][1,3]oxazol]-1-yl]-5-fluoro-N-(propan-2-yl)pyrimidine-4-carboxamide] |
| 6.74 | Cc1nc(N2CCC3(CC2)O[C@@H]2CC[C@@H](c4ccccc4)N2C3=O)ncc1-c1ncnn1C [Example 21.7, (5′S,7a′R)-1-[4-methyl-5-(1-methyl-1H-1,2,4-triazol-5-yl)pyrimidin-2-yl]-5′-phenyltetrahydro-3′H-spiro[piperidine-4,2′-pyrrolo[2,1-b][1,3]oxazol]-3′-one] |
| > 7.60 | O=C(c1nc(N2CCC3(CC2)O[C@@H]2CC[C@@H](c4cc(F)cc(F)c4)N2C3=O)ncc1F)N1CC(F)C1 [Example 7.7, (5′S,7a′R)-5′-(3,5-difluorophenyl)-1-[5-fluoro-4-(3-fluoroazetidine-1-carbonyl)pyrimidin-2-yl]tetrahydro-3′H-spiro[piperidine-4,2′-pyrrolo[2,1-b][1,3]oxazol]-3′-one] |
| > 7.60 | Cn1cnc(-c2ccc(N3CCC4(CC3)O[C@@H]3CC[C@@H](c5ccccc5)N3C4=O)n3ncnc23)c1 [Example 21.21, (5′S,7a′R)-1-[8-(1-methyl-1H-imidazol-4-yl)[1,2,4]triazolo[1,5-a]pyridin-5-yl]-5′-phenyltetrahydro-3′H-spiro[piperidine-4,2′-pyrrolo[2,1-b][l,3]oxazol]-3′-one] |
| 6.67 | N#Cc1cccc(S(=O)(=O)N2CCC3(CC2)O[C@@H]2CC[C@@H](c4cc(F)cc(F)c4)N2C3=O)c1 [Example 8.3, 3-{[(5′S,7a′R)-5′-(3,5-difluorophenyl)-3′-oxotetrahydro-1H,3′H-spiro[piperidine-4,2′-pyrrolo[2,1-b][1,3]oxazol]-1-yl]sulfonyl]benzonitrile] |
| 6.66 | O=C1N2[C@@H](CC[C@H]2c2cc(F)cc(F)c2)OC12CCN(C(c1ccccc1)C(F)F)CC2 (stereo partly drawn) [Example 22.1, (5′S,7a′R)-1-(2,2-Difluoro-1-phenylethyl)-5′-(3,5-difluorophenyl)tetrahydro-3′H-spiro[piperidine-4,2′-pyrrolo[2,1-b]oxazol]-3′-one] |
